Data as given in the supplement of paper PMC10307832.

Experiments:
Assay in all cases: relative viability (nuclei count vs DMSO), 5 days (fraction); higher = more cells survive
SK-MES-1 = details: first compound 8 µM
Outline: (§1)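 Relative viability was taken as the ratio of nuclei in treated wells to nuclei in vehicle wells. Lung cancer cell lines in 1536-well plates received compounds by pin tool one day after seeding, either one drug alone or a fixed anchor-drug dose plus five library-drug doses (not always all listed) in √10 steps. Nuclei were counted on 4× images after 5 days of treatment, and values are medians of duplicate plates.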

NCI-H1734 = tested on: NCI-H1734
Outline: as §1

NCI-H2170 = tested on: NCI-H2170
Outline: as §1

HCC-366 = tested on: HCC-366
Outline: as §1

NCI-H2342 = tested on: NCI-H2342
Outline: as §1

LOU-NH91 = tested on: LOU-NH91
Outline: as §1

NCI-H1437 = tested on: NCI-H1437
Outline: as §1

NCI-H2405 = tested on: NCI-H2405
Outline: as §1

NCI-H2087 = tested on: NCI-H2087
Outline: as §1

NCI-H661 = tested on: NCI-H661
Outline: as §1

EKVX = tested on: EKVX
Outline: as §1

HCC-827 = tested on: HCC-827
Outline: as §1

## O=c1cc(-c2cccc3c2Sc2ccccc2S3)oc(N2CCOCC2)c1 + CC(=O)Nc1cccc(-n2c(=O)n(C3CC3)c(=O)c3c(Nc4ccc(I)cc4F)n(C)c(=O)c(C)c32)c1 [Trametinib] (partner 0.02 µM)
SK-MES-1
  relative viability: 0.379
NCI-H1734; first compound 0.08 µM
  relative viability: 0.656
NCI-H1734; first compound 0.253 µM
  relative viability: 0.72
NCI-H1734; first compound 0.8 µM
  relative viability: 0.69
NCI-H1734; first compound 8 µM
  relative viability: 0.697
NCI-H2170; first compound 0.08 µM
  relative viability: 0.996
NCI-H2170; first compound 0.253 µM
  relative viability: 1.08
NCI-H2170; first compound 0.8 µM
  relative viability: 1.06
NCI-H2170; first compound 2.53 µM
  relative viability: 0.816
NCI-H2170; first compound 8 µM
  relative viability: 1.01
HCC-366; first compound 0.08 µM
  relative viability: 0.31
HCC-366; first compound 0.253 µM
  relative viability: 0.474
HCC-366; first compound 0.8 µM
  relative viability: 0.339
HCC-366; first compound 2.53 µM
  relative viability: 0.33
HCC-366; first compound 8 µM
  relative viability: 0.284
NCI-H2342; first compound 0.08 µM
  relative viability: 0.744
NCI-H2342; first compound 0.253 µM
  relative viability: 0.897
NCI-H2342; first compound 0.8 µM
  relative viability: 0.736
NCI-H2342; first compound 2.53 µM
  relative viability: 0.716
NCI-H2342; first compound 8 µM
  relative viability: 0.935
LOU-NH91; first compound 0.08 µM
  relative viability: 0.772
LOU-NH91; first compound 0.253 µM
  relative viability: 0.884
LOU-NH91; first compound 0.8 µM
  relative viability: 0.732
LOU-NH91; first compound 2.53 µM
  relative viability: 0.719
LOU-NH91; first compound 8 µM
  relative viability: 0.777
NCI-H1437; first compound 0.08 µM
  relative viability: 0.47
NCI-H1437; first compound 0.253 µM
  relative viability: 0.64
NCI-H1437; first compound 0.8 µM
  relative viability: 0.483
NCI-H1437; first compound 2.53 µM
  relative viability: 0.395
NCI-H1437; first compound 8 µM
  relative viability: 0.412
NCI-H2405; first compound 0.08 µM
  relative viability: 0.589
NCI-H2405; first compound 0.253 µM
  relative viability: 0.673
NCI-H2405; first compound 0.8 µM
  relative viability: 0.599
NCI-H2405; first compound 2.53 µM
  relative viability: 0.534
NCI-H2405; first compound 8 µM
  relative viability: 0.577
NCI-H2087; first compound 0.08 µM
  relative viability: 0.143
NCI-H2087; first compound 0.253 µM
  relative viability: 0.212
NCI-H2087; first compound 0.8 µM
  relative viability: 0.172
NCI-H2087; first compound 2.53 µM
  relative viability: 0.172
NCI-H2087; first compound 8 µM
  relative viability: 0.179
NCI-H661; first compound 0.08 µM
  relative viability: 0.565
NCI-H661; first compound 0.253 µM
  relative viability: 0.649
NCI-H661; first compound 0.8 µM
  relative viability: 0.527
NCI-H661; first compound 2.53 µM
  relative viability: 0.514
NCI-H661; first compound 8 µM
  relative viability: 0.471
EKVX; first compound 0.08 µM
  relative viability: 0.554
EKVX; first compound 0.253 µM
  relative viability: 0.332
EKVX; first compound 0.8 µM
  relative viability: 0.296
EKVX; first compound 2.53 µM
  relative viability: 0.332
EKVX; first compound 8 µM
  relative viability: 0.336
HCC-827; first compound 0.08 µM
  relative viability: 0.508
HCC-827; first compound 0.253 µM
  relative viability: 0.563
HCC-827; first compound 0.8 µM
  relative viability: 0.537
HCC-827; first compound 2.53 µM
  relative viability: 0.427
HCC-827; first compound 8 µM
  relative viability: 0.544
